Results on 13 molecules are retold here after patent US11306102B2, “1,3-di-substituted ketene compound and application thereof” (BEBETTER MED INC., priority 2017, dated 2022).

A word on the EC50: it is the concentration giving half of the maximal effect.

For the assay, the target named is T1, PPARγ (Homo sapiens, UniProt P37231).
T1 construct: expressed in transfected cells; host or cells: Hela cells
T1 sequence (P37231 1-505): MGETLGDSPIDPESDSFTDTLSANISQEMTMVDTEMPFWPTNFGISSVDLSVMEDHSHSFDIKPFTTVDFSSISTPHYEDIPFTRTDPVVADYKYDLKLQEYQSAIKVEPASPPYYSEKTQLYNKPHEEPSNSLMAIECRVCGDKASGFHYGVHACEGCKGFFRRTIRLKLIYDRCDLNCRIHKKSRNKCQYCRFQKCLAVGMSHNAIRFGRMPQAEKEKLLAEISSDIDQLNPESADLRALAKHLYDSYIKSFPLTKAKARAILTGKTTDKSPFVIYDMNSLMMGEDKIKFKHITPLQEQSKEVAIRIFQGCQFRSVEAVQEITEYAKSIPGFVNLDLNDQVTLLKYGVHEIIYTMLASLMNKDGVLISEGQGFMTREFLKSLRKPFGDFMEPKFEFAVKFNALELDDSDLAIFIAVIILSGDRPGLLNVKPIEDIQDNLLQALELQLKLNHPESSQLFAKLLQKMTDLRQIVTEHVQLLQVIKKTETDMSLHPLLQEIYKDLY
Kind of assay: Hela cell/luciferase reporter gene method, PPARγ agonist activity. The note with it: for EC50: Hela cells, pPPRE3-TK-Luciferase reporter, 24 hrs incubation, read-out: agonistic activity on PPARγ (EC50). The class given is cell-based. Here is the method: This example measures the biological activity of a PPAR agonist using the Hela cell/luciferase reporter gene method.
The target plasmids PCMV PPARα (Ampicillin+), PCMV PPARγ (Ampicillin+), PCMV PPARδ (Ampicillin+), and pPPRE3-TK-Luciferase (Ampicillin+) were introduced into DH5a competent cells by heat shock treatment, respectively. After being incubated for 1 hour at 37° C. with shaking (180 rpm), the cells were inoculated on LB agar solid medium containing antibiotic Ampicillin, and invertedly cultured at 37° C. for 12-16 hours. Then the monoclonal colony cultured on the medium was taken and inoculated into LB liquid medium for expanded culture. The desired plasmid was extracted from the resulting bacterial solution with a Plasmid Midi Kit (Qiagen; #12143). The plasmid obtained by centrifugation was suspended in TE buffer, and the plasmid concentration was measured and the mixture was stored at −20° C. Hela cells in the exponential phase were seeded in 6-well plates (8-10^5 cells/well), and after 6-8 hours of culture, the cells were transfected using Lipofectamine® 3000 Transfection Reagent (Invitrogen; #L3000015). A plasmid containing a PPAR binding site (peroxisome proliferator response element, PPRE) and a firefly luciferase gene (pPPRE3-TK-Luciferase) and PPAR expression vector were co-transfected into a Hela cell with a total amount of plasmid DNA of 2.5 ug (the mass ratio of each PPAR expression vector is pPPRE:PPARα=6:1, pPPRE:PPARδ=8:1, and pPPRE:PPARγ=2:1) to construct a drug screening cell model for PPAR agonists. PPAR was binded to the ligand and then binded to the peroxisome proliferator response element (PPRE), thereby initiating downstream firefly luciferase expression and its expression intensity was directly proportional to the degree of PPAR activation. The cells after 24 hours transfection were prepared into a cell suspension with a cell concentration of […] by a complete culture solution, and seeded into a 96-well plate with 100 ul per well. After overnight culture, the medium was changed to a medium containing 1% FBS. 10 mM candidate compound stock (1000×) were 4-fold diluted in DMSO for 8 points, then supplemented with medium containing 1% FBS to a final concentration of 50 uM (5×) by addition of 25 μl of 5× compound diluent to each well in different concentration gradients and incubated under 37° C., 5% CO2 incubator for 24 hrs. The 96-well plate was taken out and 30 μl of Bright-Glo™ Luciferase Assay System (Promega #E2620) was added to each well. The Luciferase luminescence intensity was measured by a SynergyH1 full-function microplate detector. The obtained data was used to calculate EC50 using GraphPad Prism 5.0 software to determine the biological activity of the compound.
The agonistic activity of the compounds synthesized in Examples 1-41 on PPAR is represented by EC50 (see Table 1). EC50 refers to the drug concentration at which the compound has a 50% increase in the agonistic activity of the measured PPAR. The compound numbers in Table 1 correspond to the compound numbers in Examples 1-41.
For orientation: Reporter assays use an easily measured gene product as a stand-in for the process of interest.

Structures are written as SMILES.

As to `CSc1ccc(C(=O)/C=C/c2cc(C)c(OC(C)(C)C(=O)O)c(C)c2)c2occc12` [Compound 5, (E)-2-(2,6-dimethyl-4-(3-(4-(methylthio)benzofuran-7-yl)-3-oxoprop-1-en-1-yl)phenoxy)-2-methylpropanoic acid], the concentration for a half-maximal effect (EC50) stood at 26.2 nM. On the same count and under the same terms, under `CCSc1ccc(C(=O)/C=C/c2cc(C)c(OC(C)(C)C(=O)O)c(C)c2)c2occc12` [Compound 6, (E)-2-(4-(3-(4-(ethylthio)benzofuran-7-yl)-3-oxoprop-1-en-1-yl)-2,6-dimethylphenoxy)-2-methylpropanoic acid] stands 62.6 nM. The same measure, in the same setting: under `CSc1ccc(C(=O)/C=C/c2cc(C)c(OC(C)(C)C(=O)O)c(C)c2)c2ccoc12` [Compound 27, (E)-2-(2,6-dimethyl-4-(3-(7-(methylthio)benzofuran-4-yl)-3-oxoprop-1-en-1-yl)phenoxy)-2-methylpropanoic acid] stands 124 nM; under `Cc1cc(/C=C/C(=O)c2ccc3c(c2)CCS3)cc(C)c1OC(C)(C)C(=O)O` [Compound 36, (E)-2-(4-(3-(2,3-dihydrobenzo[b]thiophen-5-yl)-3-oxoprop-1-en-1-yl)-2,6-dimethylphenoxy)-2-methylpropanoic acid], 31.6 nM; under `COc1ccc2cc(C(=O)/C=C/c3cc(C)c(OC(C)(C)C(=O)O)c(C)c3)oc2c1` [Compound 43, (E)-2-(4-(3-(6-methoxybenzofuran-2-yl)-3-oxoprop-1-en-1-yl)-2,6-dimethylphenoxy)-2-methylpropanoic acid], 116 nM. Regarding `CSc1ccc2cc(C(=O)/C=C/c3cc(C)c(OC(C)(C)C(=O)O)c(C)c3)oc2c1` [Compound 51, (E)-2-(2,6-dimethyl-4-(3-(6-(methylthio)benzofuran-2-yl)-3-oxoprop-1-en-1-yl)phenoxy)-2-methylpropanoic acid], the EC50 turned out to be 35.3 nM and the “activation of PPARγ compared with Elafibranor (in words)” value is on record as “little effect”. On to `CSc1cccc2oc(C(=O)/C=C/c3cc(C)c(OC(C)(C)C(=O)O)c(C)c3)cc12` [Compound 60, (E)-2-(2,6-dimethyl-4-(3-(4-(methylthio)benzofuran-2-yl)-3-oxoprop-1-en-1-yl)phenoxy)-2-methylpropanoic acid], for which the concentration for a half-maximal effect (EC50) came out at 92.3 nM. `CSc1ccc2c(C)c(C(=O)/C=C/c3cc(C)c(OC(C)(C)C(=O)O)c(C)c3)oc2c1` [Compound 62, (E)-2-(2,6-dimethyl-4-(3-(3-methyl-6-(methylthio)benzofuran-2-yl)-3-oxoprop-1-en-1-yl)phenoxy)-2-methylpropanoic acid]: the EC50 was 132 nM and the “activation of PPARγ compared with Elafibranor (in words)” value is on record as “weak activation”.

`CCc1c(C(=O)/C=C/c2cc(C)c(OC(C)(C)C(=O)O)c(C)c2)oc2cc(SC)ccc12` [Compound 63, (E)-2-(4-(3-(3-ethyl-6-(methylthio)benzofuran-2-yl)-3-oxoprop-1-en-1-yl)-2,6-dimethylphenoxy)-2-methylpropanoic acid]: the EC50 is 95.5 nM. Take `CCSc1ccc2c(C)c(C(=O)/C=C/c3cc(C)c(OC(C)(C)C(=O)O)c(C)c3)oc2c1` [Compound 74, (E)-2-(4-(3-(6-(ethylthio)-3-methylbenzofuran-2-yl)-3-oxoprop-1-en-1-yl)-2,6-dimethylphenoxy)-2-methylpropanoic acid]: the EC50 came out at 29.3 nM. The same measure, in the same setting: under `CSc1ccc2cc(C(=O)/C=C/c3cc(C)c(OC(C)(C)C(=O)O)c(C)c3)sc2c1` [Compound 81, (E)-2-(2,6-dimethyl-4-(3-(6-(methylthio)benzo[b]thiophen-2-yl)-3-oxoprop-1-en-1-yl)phenoxy)-2-methylpropanoic acid] stands 94.1 nM. With `CSc1ccc2cc(C(=O)/C=C/c3cc(Cl)c(OC(C)(C)C(=O)O)c(Cl)c3)oc2c1` [Compound 100, (E)-2-(2,6-dichloro-4-(3-(6-(methylthio)benzofuran-2-yl)-3-oxoprop-1-en-1-yl)phenoxy)-2-methylpropanoic acid], the half-maximal effective concentration (EC50) is 475 nM and the “activation of PPARγ compared with Elafibranor (in words)” value is listed as “significantly reduced”.

For `CSc1ccc2c(C)c(C(=O)/C=C/c3cc(Cl)c(OC(C)(C)C(=O)O)c(Cl)c3)oc2c1` [Compound 103, (E)-2-(2,6-dichloro-4-(3-(3-methyl-6-(methylthio)benzofuran-2-yl)-3-oxoprop-1-en-1-yl)phenoxy)-2-methylpropanoic acid], the EC50 came out at 788 nM and the “activation of PPARγ compared with Elafibranor (in words)” value is on record as “significantly reduced”.
